Series [1] can be described thus: Retention time of the compound by HPLC analysis. It is filed as physicochemical.
Series [2] can be described thus: Stability in rat plasma assessed as half life at 1 uM measured upto 120 min by LC-MS/MS analysis. In kind it is ADME, cell-free.
Series [3] can be described thus: Apparent permeability across basolateral to apical side in human Caco-2 cells at 10 uM incubated for 2 hrs by LC-MS/MS analysis. It is filed as ADME, cell-based. Background: Caco-2 cells form a polarised layer with tight junctions and transporters.
A further series concerns BGC-823. Put plainly: Antiproliferative activity against human BGC-823 cells assessed as reduction in cell viability incubated in dark for 96 hrs by MTT assay. In kind it is functional, cell-based. Particulars: BGC-823, 96 h. For orientation: Tetrazolium assays rely on reduction of a dye to a coloured formazan, in cell work by metabolically active cells.
The nature of series [4]: Stability in dog plasma assessed as half life at 1 uM measured upto 120 min by LC-MS/MS analysis. In kind it is ADME, cell-free, Canis lupus familiaris.
Another series has as its system HGC-27. Put plainly: Antiproliferative activity against human HGC-27 cells assessed as reduction in cell viability incubated in dark for 96 hrs by MTT assay. It is filed as functional, cell-based. Particulars: HGC-27, 96 h.
A short description of series [5]: Plasma protein binding in dog at 1 uM by LC-MS/MS analysis. In kind it is ADME, cell-free, Canis lupus familiaris. Particulars: read-out: PPB (converted).
A further series deals with MGC-803. Put plainly: Antiproliferative activity against human MGC-803 cells assessed as reduction in cell viability incubated in dark for 96 hrs by MTT assay. It is filed as functional, cell-based. The settings on record: MGC-803, 96 h.
Series [6] in a line: Stability in dog liver microsomes assessed as half life at 1 uM in presence of NADPH measured upto 120 min by LC-MS/MS analysis. In kind it is ADME, Canis lupus familiaris, Microsome. (In general: Liver microsomes are a subcellular fraction often used to study metabolism.)
Series [7] in a line: Stability in rat liver microsomes assessed as half life at 1 uM in presence of NADPH by LC-MS/MS analysis. In kind it is ADME, Microsome.
Series [8] in a line: Plasma protein binding in rat at 1 uM by LC-MS/MS analysis. It is filed as ADME, cell-free. The settings on record: read-out: PPB (converted).
For another series, the system named is AGS. Put plainly: Antiproliferative activity against human AGS cells assessed as reduction in cell viability incubated in dark for 96 hrs by MTT assay. It is filed as functional, cell-based.
The subject of another series is MG-63. Put plainly: Antiproliferative activity against human MG-63 cells assessed as reduction in cell viability incubated in dark for 96 hrs by MTT assay. The settings on record: MG-63, 96 h. In kind it is functional, cell-based.
A further series deals with HCT-116. The experiment in a line: Antiproliferative activity against human HCT-116 cells assessed as reduction in cell viability incubated in dark for 96 hrs by MTT assay. The settings on record: HCT-116, 96 h. In kind it is functional, cell-based.
The nature of series [9]: Apparent permeability across apical to basolateral side in human Caco-2 cells at 10 uM incubated for 2 hrs by LC-MS/MS analysis. In kind it is ADME, cell-based.

Consider `COc1ncc(-c2cc(OC3CCOCC3)c3ncnc(C)c3c2)cc1NS(=O)(=O)c1ccc(F)cc1F`, for which the Retention_time in series [1] turned out to be 5.2 min. Moreover, the half-life at 1 µM in series [2] was greater than 2 h; in series [4], greater than 2 h; in series [6] it was greater than 2 h; in series [7], 1.73 h. Also, the Papp B→A at 2 h, 10 µM in series [3] came out at 26.5 ×10⁻⁶ cm/s. The IC50 in the series with BGC-823 is 18.6 nM; in the series on HGC-27 it was 0.76 nM; in the series with MGC-803, 14.8 nM; in the series on AGS, 6.3 nM; in the series with MG-63 it was 5.7 nM; with HCT-116, 23.4 nM. Further, the fraction unbound at 1 µM in series [5] and in [8] was 0.017 each time. In series [9], the Papp A→B at 2 h, 10 µM worked out at 21.2 ×10⁻⁶ cm/s.

As a reminder, the half-life is the time in which the quantity being followed falls by half. What is called Papp B→A is how fast a substance crosses the layer from the basolateral side. The IC50 is the concentration that inhibits the measured activity by half. Usually Papp A→B stands for how fast a substance crosses the layer from the apical side.
